From publication PMC11578313, “Miniaturized Modular Click Chemistry‐enabled Rapid Discovery of Unique SARS‐CoV‐2 M^pro Inhibitors With Robust Potency and Drug‐like Profile” (Advanced Science, 2024)
Where two headings read alike, the source gives them in different places.

Key:
[1] = test system: rgSARS‐CoV‐2‐M^pro/L50F+E166V; assay type: cell-based, SARS‐CoV‐2; conditions: read-out: EC50 ± SD, rgSARS‐CoV‐2‐M^pro/L50F+E166V
[2] = test system: rgSARS‐CoV‐2‐M^pro/T21I+E166V; assay type: cell-based, SARS‐CoV‐2; conditions: read-out: EC50 ± SD, rgSARS‐CoV‐2‐M^pro/T21I +E166V
Wild‐type rgSARS‐CoV‐2 = test: microbe, parasite or virus in culture; assay type: cell-based, SARS‐CoV‐2
[3] = test system: SARS‐CoV‐2 (hCoV‐19/Korea/KCDC06/2020, wild type); test: microbe, parasite or virus in culture; assay type: cell-based
[4] = Severe acute respiratory syndrome coronavirus 2, Calu-3; read-out: EC50 ± SD, Wild‐type rgSARS‐CoV‐2

Compound | EC50 [1] [nM] | EC50 [2] [nM] | EC50 (Wild‐type rgSARS‐CoV‐2; [4]) [nM] | EC50 ([3]; Severe acute respiratory syndrome coronavirus 2, Calu-3, Gamma, Delta, and Omicron, read-out: EC50 against several SARS‐CoV‐2 variants) [nM] | EC50 ([3]; Severe acute respiratory syndrome coronavirus 2, wild‐type, gamma, delta, and omicron, Calu‐3, read-out: EC50 against the original strain and its circulating variants) [nM] | EC50 (Wild‐type rgSARS‐CoV‐2; Severe acute respiratory syndrome coronavirus 2, Calu-3, read-out: EC50 ± SD, Wild‐type rgSARS‐CoV‐2) [nM]
Cc1cncc(C(=O)N2C[C@H]3CC[C@@H](C2)N3C(c2cccc(F)c2)c2cccc(F)c2)c1 [AA‐625, reference compound] | 5710 ± 664 | 3410 ± 821 | 779 ± 173 | – | – | –
Cc1cncc(C(=O)N2C[C@H]3CC[C@@H](C2)N3[C@H](c2cccc(F)c2)c2cn(CCc3ccsc3)nn2)c1 [Compound C5N17B] | 150 ± 19 | 260 ± 29 | < 46 | 130 to 260 | 119 to 260 | –
Cc1cncc(C(=O)N2C[C@H]3CC[C@@H](C2)N3C(c2cccc(F)c2)c2cn(CCc3ccsc3)nn2)c1 (some centres unmarked) [Compound C5N17] | 966 ± 40 | 1470 ± 123 | 441 ± 32 | – | – | –
CC(C)(C)[C@H](NC(=O)C(F)(F)F)C(=O)N1C[C@H]2[C@@H]([C@H]1C(=O)N[C@H](C#N)C[C@@H]1CCNC1=O)C2(C)C [Nirmatrelvir, reference compound] | > 100000 | > 100000 | – | – | – | 2770 ± 33
